Test results taken from ChEMBL document CHEMBL1201862, “PubChem BioAssay data set” (2004).
Values joined by “and” are separate entries in the source; they are usually repeats but may differ in a detail not shown here. Equal values may be shown once. Active and inactive are the calls of the source.

How the values were obtained:
Cytochrome P450 1A2 = target: T1, Cytochrome P450 1A2 (Homo sapiens, UniProt P05177);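 further: PubChem cytochrome P450 panel assay, CYP1A2 panel member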
T1 sequence (P05177 whole entry): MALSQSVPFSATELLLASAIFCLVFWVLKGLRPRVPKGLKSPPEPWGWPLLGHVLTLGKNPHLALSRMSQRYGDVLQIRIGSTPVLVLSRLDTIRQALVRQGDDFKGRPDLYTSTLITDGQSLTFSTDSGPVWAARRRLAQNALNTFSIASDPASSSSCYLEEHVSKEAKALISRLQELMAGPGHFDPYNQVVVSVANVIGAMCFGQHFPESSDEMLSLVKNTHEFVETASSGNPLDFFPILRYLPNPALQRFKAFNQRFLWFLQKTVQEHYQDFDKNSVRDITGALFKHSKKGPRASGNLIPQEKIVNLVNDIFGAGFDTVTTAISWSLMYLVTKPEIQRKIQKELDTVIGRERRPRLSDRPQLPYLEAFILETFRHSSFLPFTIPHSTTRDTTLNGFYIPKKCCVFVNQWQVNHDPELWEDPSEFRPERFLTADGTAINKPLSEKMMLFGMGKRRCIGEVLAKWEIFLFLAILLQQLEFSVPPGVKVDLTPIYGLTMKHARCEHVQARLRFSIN

[1] = NIH3T3 cell viability loss – ATP luminescence, mouse fibroblasts, counter-screen, dose response (AID 2010); assay type: functional, cell-based;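 further: cells exposed to compound for about 90 hours before reading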
[2] = Trypanosoma cruzi growth suppression in host cells – NIH3T3 host cells, beta-gal luminescence, confirmation (AID 2044); assay type: functional, cell-based;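 further: intracellular parasites grown in NIH/3T3 mouse fibroblasts as host cells; luminescent beta-galactosidase reporter signal from transgenic T. cruzi replicating inside host cells; inhibitors lower the luminescence signal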
H4 = assay: Luminescence Cell-Based Dose Response HTS to Identify Activators of 5'UTR Stem-Loop Driven Prion Protein mRNA Translation in H4 Neuroglioblastoma Cells. [Related pubchem assays: 1829 (Project Summary), 1814 (Primary HTS)]; assay type: functional; settings: Homo sapiens
[3] = Luminescence Cell-Based Dose Confirmation HTS to Identify Activators of 5'UTR Stem-Loop Driven Alpha-Synuclein mRNA Translation in H4 Neuroglioblastoma Cells. [Related pubchem assays: 1829 (Project Summary), 1814 (Primary HTS)]; assay type: functional
[4] = Luminescence Cell-Based Dose Response HTS to Identify Activators of Luciferase Translation or Activity in H4 […] Cells. [Related pubchem assays: 1829 (Project Summary), 1814 (Primary HTS)]; assay type: functional
Cytochrome P450 2C9 = Cytochrome P450 2C9 (Homo sapiens, UniProt P11712)
Cytochrome P450 2C19 = Cytochrome P450 2C19 (Homo sapiens, UniProt P33261); assay: Cytochrome panel assay with activity outcomes. Panel member name: p450-cyp2c19 Compounds with AC50 equal or less than 10 uM are considered active; assay type: functional
[5] = target: T2, Corticotropin-releasing factor receptor 2/Corticotropin-releasing factor-binding protein (Homo sapiens, UniProt P24387+Q13324); assay: activators of CRF receptor 2 with binding protein – uHTS hits, confirmation (AID 602473); assay type: functional; settings: read-out: EC50_Mean
T2 sequence (Q13324 whole entry): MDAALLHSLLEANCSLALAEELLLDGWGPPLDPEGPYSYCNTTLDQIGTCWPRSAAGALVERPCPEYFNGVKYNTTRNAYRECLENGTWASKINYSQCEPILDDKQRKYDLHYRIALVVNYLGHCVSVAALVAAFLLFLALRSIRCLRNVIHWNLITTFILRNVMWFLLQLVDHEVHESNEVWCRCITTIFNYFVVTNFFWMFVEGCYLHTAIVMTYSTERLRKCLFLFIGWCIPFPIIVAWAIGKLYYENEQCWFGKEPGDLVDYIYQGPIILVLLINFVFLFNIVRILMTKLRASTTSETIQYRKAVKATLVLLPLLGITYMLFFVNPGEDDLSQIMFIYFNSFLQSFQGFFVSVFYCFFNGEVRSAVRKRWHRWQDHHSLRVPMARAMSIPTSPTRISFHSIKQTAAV
T2 sequence (P24387 whole entry): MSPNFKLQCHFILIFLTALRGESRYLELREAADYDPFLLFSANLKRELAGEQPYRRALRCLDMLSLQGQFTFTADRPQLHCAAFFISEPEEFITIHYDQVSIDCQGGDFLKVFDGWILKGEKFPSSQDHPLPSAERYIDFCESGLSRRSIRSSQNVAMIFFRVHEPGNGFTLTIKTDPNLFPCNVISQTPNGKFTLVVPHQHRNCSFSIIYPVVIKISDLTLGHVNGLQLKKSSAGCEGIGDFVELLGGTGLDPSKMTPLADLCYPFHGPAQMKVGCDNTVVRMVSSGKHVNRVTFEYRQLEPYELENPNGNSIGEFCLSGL

Chain of Cytochrome P450 2C9 (P11712 whole entry): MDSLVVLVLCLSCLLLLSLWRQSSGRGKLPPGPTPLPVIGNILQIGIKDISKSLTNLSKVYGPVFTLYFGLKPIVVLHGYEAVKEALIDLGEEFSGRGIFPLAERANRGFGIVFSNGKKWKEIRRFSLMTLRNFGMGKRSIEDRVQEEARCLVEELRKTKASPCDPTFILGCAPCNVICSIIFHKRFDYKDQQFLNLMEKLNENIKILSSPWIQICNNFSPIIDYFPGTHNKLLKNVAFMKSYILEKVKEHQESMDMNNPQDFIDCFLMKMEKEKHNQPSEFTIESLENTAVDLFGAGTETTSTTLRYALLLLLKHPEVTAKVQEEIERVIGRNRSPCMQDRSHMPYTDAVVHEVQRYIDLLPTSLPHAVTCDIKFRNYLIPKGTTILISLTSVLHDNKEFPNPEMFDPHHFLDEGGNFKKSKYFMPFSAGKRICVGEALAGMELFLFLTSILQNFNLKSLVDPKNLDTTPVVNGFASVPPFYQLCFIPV
Chain of Cytochrome P450 2C19 (P33261 whole entry): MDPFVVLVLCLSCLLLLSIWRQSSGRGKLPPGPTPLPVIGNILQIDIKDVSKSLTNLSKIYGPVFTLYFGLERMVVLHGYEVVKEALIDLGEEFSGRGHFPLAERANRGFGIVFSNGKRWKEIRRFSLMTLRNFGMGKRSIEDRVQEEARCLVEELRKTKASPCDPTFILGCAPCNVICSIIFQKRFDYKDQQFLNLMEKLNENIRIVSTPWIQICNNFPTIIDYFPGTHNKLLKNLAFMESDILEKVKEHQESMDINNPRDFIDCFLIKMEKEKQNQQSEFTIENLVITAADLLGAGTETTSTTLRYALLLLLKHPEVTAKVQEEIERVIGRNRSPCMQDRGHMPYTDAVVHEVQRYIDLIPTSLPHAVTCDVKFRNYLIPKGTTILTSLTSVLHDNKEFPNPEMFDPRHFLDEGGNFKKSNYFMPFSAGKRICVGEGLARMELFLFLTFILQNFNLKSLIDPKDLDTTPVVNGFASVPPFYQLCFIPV

## COc1ccc([N+](=O)[O-])c2c1CCN2C(=O)CC[C@H](N)C(=O)O
Cytochrome P450 1A2
  AC50: 31.6 µM (inconclusive)

## Cc1cc(C)c(C(=O)Cn2cnc3cc([N+](=O)[O-])ccc3c2=O)cc1C
[1]
  EC50: > 60 µM (not active)
[2]
  EC50: 1.61 µM (active)

## Cc1cc(C)n(CCc2nc(-c3cc4ccccc4o3)cs2)n1
H4
  EC50: 60.2 µM (active)
[3]
  EC50: 7.17 µM (active)
[4]
  EC50: 9.04 µM (active)

## CC1(C)CN=C(N(Cc2ccccc2)C(=O)Nc2ccccc2)S1
H4
  EC50: 18.8 µM (active)
[3]
  EC50: 12.5 µM (active)
[4]
  EC50: 13.1 µM (active)

## CN(Cc1ccco1)c1ncnc2ccc(-c3ccc4c(c3)OCO4)cc12
Cytochrome P450 2C9
  AC50: 1.26 µM (inconclusive)

## COC(=O)Cn1ncn2c(cc3oc(C)cc32)c1=O
H4
  EC50: 14.7 µM (active)
[3]
  EC50: 2.68 µM (active)
[4]
  EC50: 56 µM (active)

## COc1ccc(N2C(=O)CCC(C(=O)Nc3ccccn3)C2c2ccc(OC)c(OC)c2)cc1 (stereo not given)
Cytochrome P450 2C9
  AC50: 3.16 µM (inconclusive)

## O=C(N/N=C/c1ccc([N+](=O)[O-])cc1)c1ccc(COc2ccccc2-c2ccccc2)cc1
[1]
  EC50: > 30 µM (not active)
[2]
  EC50: 1.55 µM (active)

## Cc1cccc2c1OCC/C2=N\NC(=O)COc1ccccc1Cl
Cytochrome P450 2C19; read-out: AC50
  AC50: 0.708 µM (inconclusive)

## CCNc1ncc2nc(-c3cccs3)c(=O)n(-c3ccccc3)c2n1
Cytochrome P450 1A2
  AC50: 1.58 µM (inconclusive)

## COc1ccc(N(CC(=O)O)N=O)cc1
Cytochrome P450 1A2
  AC50: 0.0251 µM (inconclusive)
Cytochrome P450 2C19
  AC50: inconclusive

## Cn1cc(-c2nc3cnc(Oc4ccccc4)nc3n(C)c2=O)c2ccccc21
Cytochrome P450 1A2
  AC50: 12.6 µM (inconclusive)

## CN1CCc2c(sc3c2C(=O)NC(c2cccc(OC(=O)c4cccs4)c2)N3)C1 (stereo not given)
H4
  EC50: 40 µM (active)
[3]
  EC50: 6.46 µM (active)
[4]
  EC50: 8.11 µM (active)

## NC(=O)N/N=C\c1ccc([N+](=O)[O-])o1
Cytochrome P450 1A2
  AC50: 12.6 µM (inconclusive)

## Cc1ccc(NCc2ccccc2)cc1 [N-BENZYL-4-METHYLANILINE]
[1]
  EC50: > 60 µM (not active)
[2]
  EC50: 5.25 µM (active)

## O=c1c2c3c(sc2nc2n1N=C(c1cccs1)CS2)CCCC3
H4
  EC50: 0.118 µM (active)

## Cc1nc2ncnn2c(C)c1CCC(=O)NC(C)c1ccc2c(c1)OCCO2 (stereo not given)
Cytochrome P450 2C19; read-out: AC50
  AC50: 8.91 µM (inconclusive)

## CCOc1ccc2nc(O)c(CN(CCc3ccccc3)C(=O)N3CCOCC3)cc2c1
Cytochrome P450 1A2
  AC50: 17.8 µM (inconclusive)

## CC(=O)c1ccc(S(=O)(=O)N(Cc2cc3cc4c(cc3nc2O)OCCO4)CC2CCCO2)cc1 (stereo not given)
H4
  EC50: 26.3 µM (active)
[3]
  EC50: 13.6 µM (active)
[4]
  EC50: 6.68 µM (active)

## O=C(Nc1ccccc1)N1CCOCC1
Cytochrome P450 2C19; read-out: AC50
  AC50: 31.6 µM (inconclusive)
Cytochrome P450 2C9
  AC50: 0.562 µM (inconclusive)

## CCCNC(=O)OC[C@@H]1O[C@H](CCO/N=C(\C)CCC(=O)OC[C@@H]2O[C@H](c3ccccc3)C=C[C@@H]2Oc2ccc(OC)cc2)C=C[C@@H]1Oc1ccc(OC)cc1
Cytochrome P450 2C19; read-out: AC50
  AC50: 0.0794 µM (inconclusive)
Cytochrome P450 2C9
  AC50: 3.98 µM (inconclusive)

## Cc1ccc(NC(=O)C2CCN(c3cnccn3)CC2)cc1
[1]
  EC50: > 60 µM (not active)
[2]
  EC50: 0.9 µM (active)

## Cc1c(NC2=N/C(=N\C(=O)c3cccs3)c3ccccc32)c(=O)n(-c2ccccc2)n1C
[5]
  EC50: 5.98 µM (active)

## Cc1c(C)n(CCCN(C)C)c2ncnc(NCc3ccccc3)c12
[1]
  EC50: > 60 µM (not active)
[2]
  EC50: 0.911 µM (active)

## Fc1ccccc1OCCSc1[nH]cnc2ncnc1-2
H4
  EC50: 14.9 µM (active)
[3]
  EC50: > 120 µM (not active)
[4]
  EC50: 13 µM (active)

## O=C(c1ccc(Cl)cc1)C1CCCN(Cc2cccn2-c2cccnc2)C1 (stereo not given)
[1]
  EC50: > 60 µM (not active)
[2]
  EC50: 2.58 µM (active)

## CCOC(=O)CSc1nc(N2CCOCC2)c2c(c1C#N)CC(C)(C)N(C)C2
[5]
  EC50: > 53 µM (inactive)

## COc1ccccc1CNc1ccnc(-c2ccoc2)n1
Cytochrome P450 2C9
  AC50: 1.26 µM (inconclusive)

## COc1ccc(C2=CC(c3cccc(OC)c3)n3nnnc3N2)cc1 (stereo not given)
[5]
  EC50: > 53 µM (inactive)

## COc1ccc(N(CC(=O)NCCC2=CCCCC2)S(=O)(=O)c2ccc(C)cc2)cc1
[1]
  EC50: > 30 µM (not active)
[2]
  EC50: 2.31 µM (active)

## O=C(CCl)NN1C(=O)NC(c2ccccc2)(c2ccccc2)C1=O
H4
  EC50: > 120 µM (not active)
[3]
  EC50: 13.1 µM (active)
[4]
  EC50: > 120 µM (not active)

## O=C1C=C(c2ccc3[nH]ccc3c2)CCC1
H4
  EC50: 9.94 µM (active)
[3]
  EC50: 16 µM (active)
[4]
  EC50: 46.4 µM (active)

## COc1ccc(C(=O)NCCn2ccc3ccccc32)cc1
H4
  EC50: 0.488 µM (active)
[3]
  EC50: 0.185 µM (active)
[4]
  EC50: 0.132 µM (active)

## O=C(CCc1nnc(C2CCCCC2)o1)N1CCN(c2ccccc2F)CC1
[3]
  EC50: 9.13 µM (active)
[4]
  EC50: 11.8 µM (active)

## COc1cccc2nc(O)c(-c3ccccc3)cc12
[3]
  EC50: 9.22 µM (active)
[4]
  EC50: 8.86 µM (active)

## CCOCCCN1CC(C(=O)NCCc2ccc(C)cc2)CC1=O (stereo not given)
Cytochrome P450 2C19; read-out: AC50
  AC50: 25.1 µM (inconclusive)

## Cc1cccc(C)c1N1CCN(S(=O)(=O)N2CCCCC2)CC1
[5]
  EC50: 5.58 µM (active)

## C=CC(=O)NC(C)(C)Cc1ccccc1
Cytochrome P450 2C9
  AC50: 10 µM (inconclusive)

## CCCc1cc2c(cc1NC(=O)c1ccccc1C)OCO2
Cytochrome P450 2C9
  AC50: 0.0562 µM (inconclusive)

## COc1cc(=O)n(C)c2c(OC[C@@H](O)C(C)(C)O)cccc12
Cytochrome P450 1A2
  AC50: 20 µM (inconclusive) and 12.6 µM (inconclusive)

## COc1ccc(C(=O)NCC(=O)N2CCN(C(=O)c3ccco3)CC2)cc1
[5]
  EC50: > 53 µM (inactive)

## CCN1C(=S)SC(=O)C1=C1C=C(C)N(CCO)C(C)=C1
[3]
  EC50: 0.102 µM (active)

## Cc1nnc(O)n1-c1cccc(C(F)(F)F)c1
Cytochrome P450 1A2
  AC50: 5.62 µM (inconclusive)

## Cc1ccc(-c2ccc(CCC(=O)O)o2)cc1
Cytochrome P450 1A2
  AC50: 25.1 µM (inconclusive)

## CCOc1ccc(NC(=O)c2ccc(Br)o2)c([N+](=O)[O-])c1
Cytochrome P450 1A2
  AC50: 3.55 µM (inconclusive)

## O=C(c1ccc2nc3ccc(Cl)cc3c(=O)n2c1)N1CCOCC1
Cytochrome P450 1A2
  AC50: 14.1 µM (inconclusive)

## O=C(Nc1ncc(S(=O)(=O)c2ccc([N+](=O)[O-])cc2)s1)c1ccccc1F
[5]
  EC50: 4.81 µM (active)

## O=[N+]([O-])c1ccc(-[n+]2c(-c3ccccc3)cc(-c3ccccc3)cc2-c2ccccc2)cc1.[O-][Cl+3]([O-])([O-])[O-]
[1]
  EC50: > 60 µM (not active)
[5]
  EC50: 5.02 µM (active)
[2]
  EC50: 0.264 µM (active)

## COc1cc(/C=N/NC2=NC(=O)C(CC(=O)O)S2)ccc1OCc1cccc(Cl)c1 (stereo not given)
H4
  EC50: 19.7 µM (active)
[3]
  EC50: 6.12 µM (active)
[4]
  EC50: 10.1 µM (active)

## Cc1ccc(-n2c(=O)[nH]cc(C(=O)N3CCc4ccccc43)c2=O)cc1
Cytochrome P450 2C9
  AC50: 1 µM (inconclusive)

## CN1CCN(NC(=O)Nc2cccc(Cl)c2Cl)CC1
[1]
  EC50: > 60 µM (not active)
[2]
  EC50: 0.184 µM (active)

## O=C(/C=C/c1ccco1)NCCc1ccccc1
H4
  EC50: > 120 µM (not active)
[3]
  EC50: 10.9 µM (active)
[4]
  EC50: 14.5 µM (active)

## Cc1cc(NS(=O)(=O)c2ccc(NC(=O)c3cccc(OC(F)F)c3)cc2)nc(C)n1
[5]
  EC50: > 53 µM (inactive)

## COc1ccc(CN2CCn3ncc(C(=O)Nc4ccccc4)c3C2=O)cc1
H4
  EC50: 18.9 µM (inconclusive)
[3]
  EC50: 14.2 µM (active)
[4]
  EC50: 66.6 µM (active)

## COc1ccc(Cn2nnnc2C(c2ccccn2)N2CCN(c3cc(Cl)ccc3C)CC2)cc1 (stereo not given)
[1]
  EC50: > 60 µM (not active)
[2]
  EC50: 2.04 µM (active)
